Assays:
Test in all cases: KinomeScan profiling
Assay type in all cases: binding
ACVR1B = biological target: T1, ACVR1B (Homo sapiens, UniProt P36896); details: read-out: % control
T1 construct: purchased KinomeScan®
T1 sequence (P36896 24-505): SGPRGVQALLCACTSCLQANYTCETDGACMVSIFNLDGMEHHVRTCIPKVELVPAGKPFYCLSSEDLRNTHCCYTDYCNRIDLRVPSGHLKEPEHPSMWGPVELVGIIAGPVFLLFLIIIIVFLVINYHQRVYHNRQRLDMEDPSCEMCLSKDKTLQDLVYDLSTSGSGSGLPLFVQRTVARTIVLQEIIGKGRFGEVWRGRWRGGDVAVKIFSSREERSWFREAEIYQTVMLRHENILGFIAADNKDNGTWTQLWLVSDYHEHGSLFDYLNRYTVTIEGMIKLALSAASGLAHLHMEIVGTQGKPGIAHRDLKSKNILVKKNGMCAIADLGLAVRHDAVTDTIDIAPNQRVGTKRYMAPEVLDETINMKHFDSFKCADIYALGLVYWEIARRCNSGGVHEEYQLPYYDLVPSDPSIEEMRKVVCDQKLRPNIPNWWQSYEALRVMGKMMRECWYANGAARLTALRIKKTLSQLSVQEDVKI
Summary of the method: (§1)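 Percent-of-control values derive from RLU, calculated as (test − positive)/(negative − positive) × 100, where DMSO defines 100% and a positive control compound defines 0%. Each compound was tested at 1 μM in the 468-kinase panel; sub-35% readings indicate activity.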

CDK7 = CDK7 (Homo sapiens, UniProt P50613); details: CDK7, 1 μM; read-out: % control
Summary of the method: as §1

CDKL1 = CDKL1 (Homo sapiens, UniProt Q00532); details: CDKL1, 1 μM; read-out: % control
Summary of the method: as §1

DCAMKL1 = biological target: T2, DCAMKL1 (Homo sapiens, UniProt O15075); details: DCAMKL1, 1 μM; read-out: % control
T2 sequence (O15075 1-740): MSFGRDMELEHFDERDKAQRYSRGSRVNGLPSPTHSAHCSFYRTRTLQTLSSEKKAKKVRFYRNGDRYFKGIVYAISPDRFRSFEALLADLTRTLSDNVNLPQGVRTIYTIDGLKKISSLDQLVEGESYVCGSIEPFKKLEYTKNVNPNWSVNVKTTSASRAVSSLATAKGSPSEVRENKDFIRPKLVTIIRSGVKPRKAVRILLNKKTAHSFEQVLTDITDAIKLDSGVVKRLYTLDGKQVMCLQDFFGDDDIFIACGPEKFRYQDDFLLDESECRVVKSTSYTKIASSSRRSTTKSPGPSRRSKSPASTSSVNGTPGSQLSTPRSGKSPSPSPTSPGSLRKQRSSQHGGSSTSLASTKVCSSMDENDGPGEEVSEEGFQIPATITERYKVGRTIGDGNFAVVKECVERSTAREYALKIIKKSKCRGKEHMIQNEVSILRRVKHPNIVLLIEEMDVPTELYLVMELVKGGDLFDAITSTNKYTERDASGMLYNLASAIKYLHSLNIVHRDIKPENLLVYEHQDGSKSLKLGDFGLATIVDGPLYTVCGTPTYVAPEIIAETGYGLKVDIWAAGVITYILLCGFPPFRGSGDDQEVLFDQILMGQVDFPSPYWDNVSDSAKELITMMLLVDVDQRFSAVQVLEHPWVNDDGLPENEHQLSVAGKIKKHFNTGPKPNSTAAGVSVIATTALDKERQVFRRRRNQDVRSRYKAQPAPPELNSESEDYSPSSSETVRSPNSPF
Summary of the method: as §1

DLK = biological target: T3, DLK (Homo sapiens, UniProt Q12852); details: read-out: % control
T3 sequence (Q12852 1-859): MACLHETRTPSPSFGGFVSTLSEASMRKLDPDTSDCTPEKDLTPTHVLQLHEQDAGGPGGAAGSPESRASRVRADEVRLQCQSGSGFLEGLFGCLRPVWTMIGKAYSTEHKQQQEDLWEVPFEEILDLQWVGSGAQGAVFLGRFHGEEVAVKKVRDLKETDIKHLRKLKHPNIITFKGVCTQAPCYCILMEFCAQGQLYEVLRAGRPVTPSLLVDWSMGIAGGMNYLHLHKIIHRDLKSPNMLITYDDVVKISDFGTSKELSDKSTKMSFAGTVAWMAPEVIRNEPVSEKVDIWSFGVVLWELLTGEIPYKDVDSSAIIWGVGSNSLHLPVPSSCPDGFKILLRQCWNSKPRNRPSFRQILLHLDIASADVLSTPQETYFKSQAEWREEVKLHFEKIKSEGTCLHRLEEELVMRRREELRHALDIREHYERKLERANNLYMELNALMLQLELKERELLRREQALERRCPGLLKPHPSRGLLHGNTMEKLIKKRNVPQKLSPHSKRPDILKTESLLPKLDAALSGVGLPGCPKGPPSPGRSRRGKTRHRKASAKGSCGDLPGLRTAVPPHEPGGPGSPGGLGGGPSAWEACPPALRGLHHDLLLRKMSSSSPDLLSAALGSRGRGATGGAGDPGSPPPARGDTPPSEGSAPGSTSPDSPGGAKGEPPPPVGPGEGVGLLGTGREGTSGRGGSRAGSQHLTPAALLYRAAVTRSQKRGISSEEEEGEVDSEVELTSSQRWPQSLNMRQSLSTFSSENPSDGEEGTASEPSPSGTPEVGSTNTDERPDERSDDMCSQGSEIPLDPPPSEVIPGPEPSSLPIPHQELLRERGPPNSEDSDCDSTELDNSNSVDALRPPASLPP
Summary of the method: as §1

FLT1 = FLT1 (Homo sapiens, UniProt P17948); details: FLT1, 1 μM; read-out: % control
Summary of the method: as §1

FYN = FYN (Homo sapiens, UniProt P06241); details: read-out: % control
Summary of the method: as §1

PHKG1 = PHKG1 (Homo sapiens, UniProt Q16816); details: PHKG1, 1 μM; read-out: % control
Summary of the method: as §1

SBK1 = biological target: T4, SBK1 (Homo sapiens, UniProt Q52WX2); details: SBK1, 1 μM; read-out: % control
T4 construct: purchased KinomeScan® (panel service)
Summary of the method: as §1

SLK = biological target: T5, SLK (Homo sapiens, UniProt Q9H2G2); details: read-out: % control
T5 construct: purchased KinomeScan® (panel service)
Summary of the method: as §1

Sequence of FYN (P06241 whole entry): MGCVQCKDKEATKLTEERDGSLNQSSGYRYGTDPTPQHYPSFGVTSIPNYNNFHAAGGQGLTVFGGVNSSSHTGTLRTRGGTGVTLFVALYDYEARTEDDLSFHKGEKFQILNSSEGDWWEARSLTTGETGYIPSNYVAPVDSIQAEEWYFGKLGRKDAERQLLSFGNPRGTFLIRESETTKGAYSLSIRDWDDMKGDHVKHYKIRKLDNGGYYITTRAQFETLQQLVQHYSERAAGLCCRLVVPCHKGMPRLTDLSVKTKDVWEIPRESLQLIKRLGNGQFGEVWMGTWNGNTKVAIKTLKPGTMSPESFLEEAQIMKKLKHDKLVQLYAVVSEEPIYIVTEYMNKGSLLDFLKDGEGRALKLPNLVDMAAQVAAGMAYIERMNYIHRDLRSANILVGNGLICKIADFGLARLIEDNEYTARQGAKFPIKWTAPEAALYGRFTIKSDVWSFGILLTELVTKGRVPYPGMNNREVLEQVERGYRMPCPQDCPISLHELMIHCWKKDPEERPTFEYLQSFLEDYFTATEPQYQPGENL
Sequence of CDK7 (P50613 whole entry): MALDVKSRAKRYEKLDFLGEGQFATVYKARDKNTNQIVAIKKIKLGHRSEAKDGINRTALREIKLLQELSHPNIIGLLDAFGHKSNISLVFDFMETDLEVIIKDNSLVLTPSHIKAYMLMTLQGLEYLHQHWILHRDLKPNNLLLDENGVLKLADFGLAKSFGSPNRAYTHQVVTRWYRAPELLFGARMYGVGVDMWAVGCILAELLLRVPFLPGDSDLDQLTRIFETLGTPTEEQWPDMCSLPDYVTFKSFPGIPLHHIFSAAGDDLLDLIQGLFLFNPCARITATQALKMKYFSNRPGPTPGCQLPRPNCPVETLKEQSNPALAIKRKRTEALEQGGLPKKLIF
T4 sequence (Q52WX2 whole entry): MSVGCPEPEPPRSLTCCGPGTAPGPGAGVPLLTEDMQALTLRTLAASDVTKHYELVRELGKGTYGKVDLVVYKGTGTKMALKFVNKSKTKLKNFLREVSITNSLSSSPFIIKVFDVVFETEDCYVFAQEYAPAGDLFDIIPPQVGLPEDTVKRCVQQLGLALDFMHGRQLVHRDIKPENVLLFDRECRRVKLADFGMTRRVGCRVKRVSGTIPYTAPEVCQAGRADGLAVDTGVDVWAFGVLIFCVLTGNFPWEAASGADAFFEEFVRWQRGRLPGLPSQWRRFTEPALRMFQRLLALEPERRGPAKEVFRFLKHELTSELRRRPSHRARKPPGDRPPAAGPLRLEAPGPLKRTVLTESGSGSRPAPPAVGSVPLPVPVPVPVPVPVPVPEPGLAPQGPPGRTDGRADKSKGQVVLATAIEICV
Sequence of PHKG1 (Q16816 whole entry): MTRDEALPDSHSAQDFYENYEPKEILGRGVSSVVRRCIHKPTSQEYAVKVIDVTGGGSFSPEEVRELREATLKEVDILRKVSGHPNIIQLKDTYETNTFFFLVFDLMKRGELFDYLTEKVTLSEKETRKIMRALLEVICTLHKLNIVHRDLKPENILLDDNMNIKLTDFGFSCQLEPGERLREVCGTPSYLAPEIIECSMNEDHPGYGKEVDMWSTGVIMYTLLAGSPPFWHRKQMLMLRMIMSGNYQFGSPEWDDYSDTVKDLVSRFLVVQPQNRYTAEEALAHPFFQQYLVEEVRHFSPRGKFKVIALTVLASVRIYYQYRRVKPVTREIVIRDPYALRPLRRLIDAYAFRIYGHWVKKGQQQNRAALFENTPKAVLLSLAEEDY
Sequence of CDKL1 (Q00532 whole entry): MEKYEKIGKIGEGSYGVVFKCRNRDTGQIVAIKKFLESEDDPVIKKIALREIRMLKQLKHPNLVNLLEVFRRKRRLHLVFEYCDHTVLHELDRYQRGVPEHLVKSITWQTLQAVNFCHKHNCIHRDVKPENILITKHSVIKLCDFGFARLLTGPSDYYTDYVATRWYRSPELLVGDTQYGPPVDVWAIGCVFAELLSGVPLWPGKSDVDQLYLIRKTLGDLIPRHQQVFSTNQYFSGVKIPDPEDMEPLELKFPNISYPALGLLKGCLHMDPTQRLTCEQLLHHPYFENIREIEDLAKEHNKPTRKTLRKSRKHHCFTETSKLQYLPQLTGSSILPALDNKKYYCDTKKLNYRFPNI
Sequence of FLT1 (P17948 27-1338): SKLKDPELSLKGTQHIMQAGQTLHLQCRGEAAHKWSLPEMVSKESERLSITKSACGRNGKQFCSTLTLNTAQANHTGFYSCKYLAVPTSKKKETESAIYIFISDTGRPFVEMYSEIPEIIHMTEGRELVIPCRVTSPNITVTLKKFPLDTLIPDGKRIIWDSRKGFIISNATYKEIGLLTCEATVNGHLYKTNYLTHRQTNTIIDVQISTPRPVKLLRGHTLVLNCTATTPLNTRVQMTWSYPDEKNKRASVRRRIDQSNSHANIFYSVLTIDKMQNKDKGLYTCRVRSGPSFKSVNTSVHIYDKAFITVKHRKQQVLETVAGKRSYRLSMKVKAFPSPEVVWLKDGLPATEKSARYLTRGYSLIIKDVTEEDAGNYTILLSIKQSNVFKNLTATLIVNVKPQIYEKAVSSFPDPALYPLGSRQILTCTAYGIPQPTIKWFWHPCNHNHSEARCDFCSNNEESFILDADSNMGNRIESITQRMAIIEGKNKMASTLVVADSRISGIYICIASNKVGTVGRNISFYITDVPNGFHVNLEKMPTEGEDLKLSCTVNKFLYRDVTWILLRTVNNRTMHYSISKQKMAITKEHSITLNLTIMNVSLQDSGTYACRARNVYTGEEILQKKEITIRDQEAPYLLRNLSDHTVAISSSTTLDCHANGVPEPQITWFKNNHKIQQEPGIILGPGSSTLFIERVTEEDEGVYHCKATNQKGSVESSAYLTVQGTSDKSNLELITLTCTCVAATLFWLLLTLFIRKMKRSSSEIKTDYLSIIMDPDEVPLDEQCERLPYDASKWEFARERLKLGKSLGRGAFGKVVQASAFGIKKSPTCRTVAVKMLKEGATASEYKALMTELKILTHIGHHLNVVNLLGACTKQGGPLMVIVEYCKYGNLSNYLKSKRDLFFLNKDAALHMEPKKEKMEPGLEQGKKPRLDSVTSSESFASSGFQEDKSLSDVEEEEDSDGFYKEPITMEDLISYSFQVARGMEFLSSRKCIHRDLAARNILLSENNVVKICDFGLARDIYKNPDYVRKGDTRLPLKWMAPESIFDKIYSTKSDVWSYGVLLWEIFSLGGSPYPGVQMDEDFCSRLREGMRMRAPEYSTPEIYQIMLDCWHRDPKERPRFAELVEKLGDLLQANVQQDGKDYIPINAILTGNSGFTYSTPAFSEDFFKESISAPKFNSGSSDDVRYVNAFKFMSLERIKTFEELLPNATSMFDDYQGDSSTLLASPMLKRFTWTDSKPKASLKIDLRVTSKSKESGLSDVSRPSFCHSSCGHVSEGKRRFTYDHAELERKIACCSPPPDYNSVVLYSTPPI
T5 sequence (Q9H2G2 whole entry): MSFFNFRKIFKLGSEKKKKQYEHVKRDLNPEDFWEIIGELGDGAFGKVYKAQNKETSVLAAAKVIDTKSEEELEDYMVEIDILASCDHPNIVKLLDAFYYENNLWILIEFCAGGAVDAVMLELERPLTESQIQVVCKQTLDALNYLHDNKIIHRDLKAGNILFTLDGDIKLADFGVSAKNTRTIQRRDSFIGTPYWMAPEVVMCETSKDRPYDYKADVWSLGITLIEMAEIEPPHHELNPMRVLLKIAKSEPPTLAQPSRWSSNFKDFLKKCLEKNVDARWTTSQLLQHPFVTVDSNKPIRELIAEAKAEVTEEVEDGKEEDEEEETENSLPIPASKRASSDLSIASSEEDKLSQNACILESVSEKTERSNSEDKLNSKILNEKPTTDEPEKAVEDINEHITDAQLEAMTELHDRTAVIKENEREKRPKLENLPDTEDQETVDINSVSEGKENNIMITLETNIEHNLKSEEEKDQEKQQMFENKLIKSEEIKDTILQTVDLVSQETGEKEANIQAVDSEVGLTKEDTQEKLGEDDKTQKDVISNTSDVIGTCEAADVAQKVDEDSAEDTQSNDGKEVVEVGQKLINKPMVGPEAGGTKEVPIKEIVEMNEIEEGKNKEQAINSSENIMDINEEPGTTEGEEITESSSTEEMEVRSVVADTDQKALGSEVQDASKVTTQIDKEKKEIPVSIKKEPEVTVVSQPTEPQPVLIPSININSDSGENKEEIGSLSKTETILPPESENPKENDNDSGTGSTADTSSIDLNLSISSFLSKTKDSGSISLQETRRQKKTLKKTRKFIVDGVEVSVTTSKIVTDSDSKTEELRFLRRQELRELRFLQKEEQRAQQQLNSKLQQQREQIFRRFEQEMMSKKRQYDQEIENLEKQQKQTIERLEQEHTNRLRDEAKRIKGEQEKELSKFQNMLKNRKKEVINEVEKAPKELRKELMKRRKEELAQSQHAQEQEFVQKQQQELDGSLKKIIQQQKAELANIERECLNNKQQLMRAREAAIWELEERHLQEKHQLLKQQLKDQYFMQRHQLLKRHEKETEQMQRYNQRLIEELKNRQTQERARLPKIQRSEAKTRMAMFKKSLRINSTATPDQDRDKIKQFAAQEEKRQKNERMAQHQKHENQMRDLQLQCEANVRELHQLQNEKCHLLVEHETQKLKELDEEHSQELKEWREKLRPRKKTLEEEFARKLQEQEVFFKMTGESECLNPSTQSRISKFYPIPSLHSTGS

| SMILES | remaining binding at 1 µM (ACVR1B) | remaining binding at 1 µM (CDK7) | remaining binding at 1 µM (CDKL1) | remaining binding at 1 µM (DCAMKL1) | remaining binding at 1 µM (DLK) | remaining binding at 1 µM (FLT1) | remaining binding at 1 µM (FYN) | remaining binding at 1 µM (PHKG1) | remaining binding at 1 µM (SBK1) | remaining binding at 1 µM (SLK) |
| --- | --- | --- | --- | --- | --- | --- | --- | --- | --- | --- |
| CNc1c(-c2cnn([C@H]3CCN(C(C)=O)C[C@@H]3F)c2)cnc2[nH]cc(Cl)c12 [Compound 77, 1-((3S,4S)-4-(4-(3-chloro-4-(methylamino)-1H-pyrrolo[2,3-b]pyridin-5-yl)-1H-pyrazol-1-yl)-3-fluoropiperidin-1-yl)ethan-1-one] | 83% | 94% | 76% | 79% | 14% | 21% | 94% | 100% | 44% | 86% |
| O=C(c1ccc(-c2cnc3[nH]cc(Cl)c3c2NC2CCCC2)cc1)N1CCC(N2CCOCC2)CC1 [Compound 101, (4-(3-chloro-4-(cyclopentylamino)-1H-pyrrolo[2,3-b]pyridin-5-yl)phenyl)(4-morpholinopiperidin-1-yl)methanone] | 98% | 93% | 100% | 90% | 65% | 51% | 87% | 87% | 67% | 78% |
| CNc1c(-c2ccc(C(=O)N3CCC(N4CCOCC4)CC3)cc2)cnc2[nH]cc(Cl)c12 [Compound 96, (4-(3-chloro-4-(methylamino)-1H-pyrrolo[2,3-b]pyridin-5-yl)phenyl)(4-morpholinopiperidin-1-yl)methanone] | 74% | 90% | 78% | 77% | 24% | 33% | 96% | 86% | 63% | 68% |

Source: patent US12275731B2, “Azaindole inhibitors of wild-type and mutant forms of LRRK2” (DANA-FARBER CANCER INSTITUTE, INC., priority 2018, dated 2025)
